Results taken from patent publication US20100069366A1, “ANTIBACTERIAL QUINOLINE DERIVATIVES” (JANSSEN-CILAG, priority 2006, published 2010).
Converted amounts (≈) assume the structure as drawn. Like-named read-outs stand apart in the source and are kept apart here.

Columns and labels:
Format in all cases: cell-based
[1] = tested on: M. Smegmatis ATCC607; assay: In-vitro anti-bacterial activity against strain M. smegmatis ATCC607; details: for IC90: Mycolicibacterium smegmatis
Procedure: Flat-bottom, sterile 96-well plastic microtiter plates were filled with 180 μl of sterile deionized water, supplemented with 0.25% BSA. Subsequently, stock solutions (7.8× final test concentration) of compounds were added in 45 μl volumes to a series of duplicate wells in column 2 so as to allow evaluation of their effects on bacterial growth. Serial five-fold dilutions (45 μl in 180 μl) were made directly in the microtiter plates from column 2 to 11 using a customised robot system (Zymark Corp., Hopkinton, Mass.). Pipette tips were changed after every 3 dilutions to minimize pipetting errors with high hydrophobic compounds. Untreated control samples with (column 1) and without (column 12) inoculum were included in each microtiter plate. Approximately 250 CFU per well of bacteria inoculum, in a volume of 100 μl in 2.8× Mueller-Hinton broth medium, was added to the rows A to H, except column 12. The same volume of broth medium without inoculum was added to column 12 in row A to H. The cultures were incubated at 37° C. for 48 hours in a humidified 5% CO2 atmosphere (incubator with open air valve and continuous ventilation). At the end of incubation, two days after inoculation, the bacterial growth was quantitated fluorometrically. Therefore Alamar Blue (10×) was added to all wells in a volume of 20 μl and plates were incubated for another 2 hours at […]
The fluorescence was read in a computer-controlled fluorometer (Cytofluor, Biosearch) at an excitation wavelength of 530 nm and an emission wavelength of 590 nm (gain 30).

[2] = tested on: Staphylococcus aureus (ATCC29213); assay: Microtitre plate assay, IC90 determination, STA 29213
Procedure: (§1) The bacteria used in this study were grown overnight in flasks containing 100 ml Mueller-Hinton Broth (Becton Dickinson—cat. no. 275730) in sterile de-ionized water, with shaking, at 37° C. Stocks (0.5 ml/tube) were stored at −70° C. until use. Bacteria titrations were performed in microtiter plates to detect the TCID50, in which the TCID50 represents the dilution that gives rise to bacterial growth in 50% of inoculated cultures.
(§2) In general, an inoculum level of approximately 100 TCID50 was used for susceptibility testing.
(§3) Flat-bottom, sterile 96-well plastic microtiter plates were filled with 180 μl of sterile deionized water, supplemented with 0.25% BSA. Subsequently, stock solutions (7.8× final test concentration) of compounds were added in 45 μl volumes in column 2 Serial five-fold dilutions (45 μl in […]) were made directly in the microtiter plates from column 2 to reach column 11. Untreated control samples with (column 1) and without (column 12) inoculum were included in each microtiter plate. Depending on the bacteria type, approximately 10 to 60 CFU per well of bacteria inoculum (100 TCID50), in a volume of 100 μl in 2.8× Mueller-Hinton broth medium, was added to the rows A to H, except column 12. The same volume of broth medium without inoculum was added to column 12 in row A to H. The cultures were incubated at 37° C. for 24 hours under a normal atmosphere (incubator with open air valve and continuous ventilation). At the end of incubation, one day after inoculation, the bacterial growth was quantitated fluorometrically. Therefore resazurin (0.6 mg/ml) was added in a volume of 20 μl to all wells 3 hours after inoculation, and the plates were re-incubated overnight. A change in colour from blue to pink indicated the growth of bacteria. The fluorescence was read in a computer-controlled fluorometer (Cytofluor Biosearch) at an excitation wavelength of 530 nm and an emission wavelength of 590 nm. The % growth inhibition achieved by the compounds was calculated according to standard methods.

[3] = tested on: Streptococcus pneumoniae (ATCC6305); assay: Microtitre plate assay, IC90 determination, SPN 6305; details: 90% inhibitory concentration for bacterial growth, resazurin
Procedure: as §1, §2, §3

[4] = tested on: Enterococcus faecalis (ATCC29212); assay: Microtitre plate assay, IC90 determination, EFA 29212; details: Enterococcus faecalis ATCC29212, 90% inhibitory concentration for bacterial growth, resazurin; for IC90: read-out: IC90 (μg/ml) EFA 29212
Procedure: as §1, §2, §3

[5] = tested on: Streptococcus pyogens (ATCC8668); assay: Microtitre plate assay, IC90 determination, SPY 8668
Procedure: as §1, §2, §3

[6] = tested on: Pseudomonas aeruginosa (ATCC27853); assay: Microtitre plate assay, IC90 determination, PAE 27853
Procedure: as §1, §2, §3

[7] = tested on: methicilline resistant Staphylococcus aureus (MRSA) (a clinical isolate from the University of Antwerp); assay: Microtitre plate assay, IC90 determination, STA RMETH; details: 90% inhibitory concentration for bacterial growth, resazurin
Procedure: as §1, §2, §3

[8] = tested on: Staphylococcus aureus (ATCC25923); assay: Microtitre plate assay, IC90 determination, STA 25923; details: Staphylococcus aureus ATCC25923, 90% inhibitory concentration for bacterial growth, resazurin
Procedure: as §1, §2, §3

[9] = ATCC607, 90% inhibitory concentration for bacterial growth, 48 hours, Alamar Blue fluorescence, read-out: M. smegmatis IC90
[10] = Staphylococcus aureus ATCC29213, 90% inhibitory concentration for bacterial growth, resazurin, read-out: IC90 (μg/ml) STA 29213
[11] = Streptococcus pneumoniae ATCC6305, read-out: IC90 (μg/ml) SPN 6305
[12] = Streptococcus pyogens ATCC8668, 90% inhibitory concentration for bacterial growth, resazurin, read-out: IC90 (μg/ml) SPY 8668
[13] = Pseudomonas aeruginosa ATCC27853, 90% inhibitory concentration for bacterial growth, resazurin, read-out: IC90 (μg/ml) PAE 27853
[14] = 90% inhibitory concentration for bacterial growth, 48 hours, Alamar Blue fluorescence
[15] = Staphylococcus aureus ATCC29213, 90% inhibitory concentration for bacterial growth, resazurin
[16] = Streptococcus pneumoniae ATCC6305
[17] = Streptococcus pyogens ATCC8668, 90% inhibitory concentration for bacterial growth, resazurin
[18] = Pseudomonas aeruginosa ATCC27853, 90% inhibitory concentration for bacterial growth, resazurin

Row | Compound | IC90 [1, 9] | IC90 [2, 10] | IC90 [3, 11] | IC90 [4] | IC90 [5, 12] | IC90 [6, 13] | M. smegmatis IC90 [1, 14] | IC90 (μg/ml) STA 29213 [2, 15] | IC90 (μg/ml) SPN 6305 [3, 16] | IC90 (μg/ml) EFA 29212 [4] | IC90 (μg/ml) SPY 8668 [5, 17] | IC90 (μg/ml) PAE 27853 [6, 18] | further results
1 | COc1nc2ccc(Br)cc2cc1/C(=C(/CCN(C)C)c1cccc2ccccc12)c1ccccc1 [Compound 9] | 1.7 µg/mL (≈ 3.16 µM) | 2.69 µg/mL (≈ 5 µM) | 9.56 µg/mL (≈ 17.8 µM) | 10.7 µg/mL (≈ 19.9 µM) | 10.7 µg/mL (≈ 19.9 µM) | 9.56 µg/mL (≈ 17.8 µM) | – | – | – | – | – | – | IC90 ([7]; Staphylococcus aureus, read-out: IC90 (μg/ml) STA RMETH): 3.81 µg/mL (≈ 7.09 µM); IC90 ([8]; read-out: IC90 (μg/ml) STA 25923): 5.38 µg/mL (≈ 10 µM)
2 | COc1nc2ccc(Br)cc2cc1C(/C(=C/C[N+](C)(C)C)c1cccc(F)c1)c1ccccc1 (centres unmarked) [Compound 23] | – | – | – | – | – | – | – | – | – | – | – | – | IC90 ([1]; ATCC607, 48 h, read-out: M. smegmatis IC90 (μg/ml), 90% inhibitory concentration for bacterial growth, Alamar Blue fluorescence): 1.85 µg/mL; IC90 ([2]; Staphylococcus aureus, ATCC29213, read-out: IC90 (μg/ml) STA 29213): 1.65 µg/mL; IC90 ([3]; Streptococcus pneumoniae, ATCC6305, read-out: IC90 (μg/ml) SPN 6305, Streptococcus pneumoniae ATCC6305): 1.85 µg/mL; IC90 ([5]; Streptococcus, ATCC8668, read-out: IC90 (μg/ml) SPY 8668): 1.65 µg/mL; IC90 ([6]; Pseudomonas aeruginosa, ATCC27853, read-out: IC90 (μg/ml) PAE 27853): 6.55 µg/mL
3 | COc1nc2ccc(Br)cc2cc1C(/C(C)=C/CN(C)C)c1ccccc1 (centres unmarked) [Compound 14] | 1.35 µg/mL (≈ 3.17 µM) | 33.8 µg/mL (≈ 79.4 µM) | 1.35 µg/mL (≈ 3.17 µM) | 37.9 µg/mL (≈ 89.1 µM) | 26.8 µg/mL (≈ 63.1 µM) | 37.9 µg/mL (≈ 89.1 µM) | – | – | – | – | – | – | –
4 | COc1nc2ccc(C)cc2cc1C(C(=CCN(C)C)c1ccccc1)c1ccccc1 (racemic) [Compound 30] | – | – | – | – | – | – | 2.67 µg/mL | 6.7 µg/mL (≈ 15.9 µM) | 1.34 µg/mL (≈ 3.17 µM) | 11.91 µg/mL (≈ 28.2 µM) | 6.7 µg/mL (≈ 15.9 µM) | 13.36 µg/mL (≈ 31.6 µM) | –
5 | COc1nc2ccc(Br)cc2cc1C(/C(=C/CN(C)C)c1ccsc1)c1ccccc1 (centres unmarked) [Compound 17] | 39.2 µg/mL (≈ 79.4 µM) | 15.6 µg/mL (≈ 31.6 µM) | 7.82 µg/mL (≈ 15.8 µM) | 39.2 µg/mL (≈ 79.4 µM) | 19.6 µg/mL (≈ 39.8 µM) | 44 µg/mL (≈ 89.1 µM) | – | – | – | – | – | – | –
6 | COc1nc2ccc(-c3ccccc3)cc2cc1C(C(=CCN(C)C)c1cccc2ccccc12)c1ccccc1 (mixture of isomers) [Compound 32] | – | – | – | – | – | – | 1.69 µg/mL | 1.69 µg/mL | 1.9 µg/mL | 9.51 µg/mL | 3.79 µg/mL | 3.79 µg/mL | –
7 | COc1nc2ccc(Br)cc2cc1C(=C(CCN(C)C)c1cccc(F)c1)c1ccccc1 [Compound 38] | – | – | – | – | – | – | 8.01 µg/mL | 10.08 µg/mL (≈ 19.9 µM) | 8.01 µg/mL (≈ 15.8 µM) | 8.01 µg/mL (≈ 15.8 µM) | 3.58 µg/mL (≈ 7.08 µM) | 8.99 µg/mL (≈ 17.8 µM) | –
8 | COc1nc2ccc(Br)cc2cc1C(=C(CCN(C)C)c1ccccc1)c1ccccc1 [Compound 36] | – | – | – | – | – | – | 1.94 µg/mL | 9.73 µg/mL (≈ 20 µM) | 5.47 µg/mL (≈ 11.2 µM) | 12.24 µg/mL (≈ 25.1 µM) | 9.73 µg/mL (≈ 20 µM) | 12.24 µg/mL (≈ 25.1 µM) | IC90 (μg/ml) STA RMETH [7]: 12.24 µg/mL (≈ 25.1 µM); IC90 (μg/ml) STA 25923 [8]: 10.91 µg/mL (≈ 22.4 µM)
9 | COc1nc2ccc(Br)cc2cc1C(=C(C)CCN(C)C)c1ccccc1 (mixture of isomers) [Compound 35] | – | – | – | – | – | – | 3.79 µg/mL | 33.79 µg/mL | 1.35 µg/mL | 15.09 µg/mL | 1.35 µg/mL | 15.09 µg/mL | –
10 | CSc1nc2ccc(-c3ccccc3)cc2cc1C(=C(CCN(C)C)c1ccccc1)c1ccccc1 (single isomer, unassigned) [Compound 40] | – | – | – | – | – | – | 1.58 µg/mL | 19.93 µg/mL (≈ 39.8 µM) | 3.98 µg/mL (≈ 7.95 µM) | 15.83 µg/mL (≈ 31.6 µM) | 7.94 µg/mL (≈ 15.9 µM) | – | –
